Earlier results as cited in patent US12490952B2, “Combined sub-iliopsoas and subpectineal blocks—for hip surgery” (National Guard Health Affairs, priority 2020, dated 2025).

Settings: local anesthetic, general background statement

CCN(CC)CCOC(=O)c1ccc(N)cc1Cl [Chloroprocaine]
duration of action (short-acting / intermediate duration): 45 to 90 min
